Results: patent US20110033461A1, “Combination Therapy for the Treatment of Cancer” (priority 2008, published 2011)
Where two headings read alike, the source gives them in different places.

Experiments:
DLD1 cells = test: viability-based synergy experiment, C1368 and erlotinib, DLD1 cells; type: cell-based
From the text: (§1) ED refers to the percentage of cell killed at different drug doses.

HCT116 cells [1] = test: viability-based synergy experiment, C1368 and cetuximab, HCT116 cells; type: cell-based, human
HCT116 cells [2] = test: viability-based synergy experiment, C1368 and erlotinib, HCT116 cells; type: cell-based, human; conditions: for fold decrease of IC50 value, combination vs drug alone: C1368:erlotinib 1:25 ratio
From the text: as §1

HCT116 cells [3] = test: cell cycle analysis of erlotinib-treated HCT116 cells; type: cell-based, human
From the text: Inhibition of Aurora kinase activity is associated with cell cycle arrest.

Compound	IC50 (DLD1 cells; DLD1 cells, combination treatment with C1368 and erlotinib, read-out: IC50 in combination)	IC50 (DLD1 cells; DLD1 cells, single agent, read-out: IC50, single agent)	IC50 (HCT116 cells [1]; cetuximab with C1368, 1:109 ratio, read-out: IC50 value in combination)	IC50 (HCT116 cells [1]; read-out: IC50 value, drug alone (cetuximab experiment), drug alone)	fold decrease of IC50 value, combination vs drug alone (HCT116 cells [2]; HCT116 cells)	IC50 (HCT116 cells [2]; HCT116 cells, combination of C1368 and erlotinib, 1:25 ratio, read-out: IC50 value in combination)	IC50 (HCT116 cells [2]; HCT116 cells, treatment with either drug alone, read-out: IC50 value, drug alone)	IC50 (DLD1 cells; Homo sapiens, DLD-1, read-out: IC50 in combination)	IC50 (DLD1 cells; Homo sapiens, DLD-1, DLD1 cells, single agent, read-out: IC50, single agent)	concentration at which there was a reduction in cell number suggesting cell death (HCT116 cells [3])	induction of cell cycle arrest (HCT116 cells [3])	IC50 (HCT116 cells [2]; Homo sapiens, HCT-116, read-out: IC50 value in combination)	IC50 (HCT116 cells [2]; Homo sapiens, HCT-116, HCT116 cells, treatment with either drug alone, read-out: IC50 value, drug alone)
O=C(Nc1cccc(Nc2nccc(Nc3cccc(C(F)(F)F)c3)n2)c1)C1CC1 [C1368]	500 nM	2700 nM	1000 nM	2100 nM	> 4 fold	500 nM	2300 nM						
C#Cc1cccc(Nc2ncnc3cc(OCCOC)c(OCCOC)cc23)c1 [erlotinib]					> 3 fold			13800 nM	71700 nM	> 50 µM	did not noticeably induce cell cycle arrest	12300 nM	37300 nM
